According to patent US9131648B2, “Genes encoding chavicol/eugenol synthase from the creosote bush Larrea tridentata” (Washington State University, priority 2006, dated 2015):
Entries after “also recorded” stand apart in the source; their conditions may differ. Like-named read-outs stand apart in the source and are kept apart here.

Key:
LtPLRh1 (LtCES1) [1] = target: T1, LtPLRh1 (LtCES1) (Larrea tridentata, UniProt V5NR15); test: LtPLRh1 (LtCES1) chavicol/eugenol synthase assays, kinetic parameters for monolignol ester substrates; type: biochemical; conditions: for Km values / Vmax values: PLR homologue in the creosote bush; for Vmax / kcat: Table 2, LtPLRh1 apparent
Procedure: (§1) Enzymatic assays. All assays were performed at 30° C. in 250 μl of the corresponding buffered solutions (at 100 mM buffer concentration) containing 0.5 μg […]1) Rh1 and 1.0 mM NADPH, and were terminated by addition of 25 μl glacial acetic acid and freezing. […] Assays were carried out for 1 to 120 min; controls included both boiled enzyme extracts and omission of substrates. Kinetic parameters (Km and Vmax): Three sets of triplicate assays were carried out for 5 min in Bis-Tris propane buffer at pH 7.55, and contained different concentrations of p-coumaryl acetate (48), p-coumaryl coumarate (50) or coniferyl acetate (49) (3.2 μM-1 mM).

LtPLRh1 (LtCES1) [2] = target: T1, LtPLRh1 (LtCES1); test: In vitro test of LtPLRh1 with PLR, PCBER and IFR substrates; type: biochemical
PLR_Tp1 = target: T2, PLR_Tp1 (Thuja plicata, UniProt Q9LD14); conditions: Kim et al., manuscript in preparation (34), cited from earlier work
T2 sequence (Q9LD14 1-313): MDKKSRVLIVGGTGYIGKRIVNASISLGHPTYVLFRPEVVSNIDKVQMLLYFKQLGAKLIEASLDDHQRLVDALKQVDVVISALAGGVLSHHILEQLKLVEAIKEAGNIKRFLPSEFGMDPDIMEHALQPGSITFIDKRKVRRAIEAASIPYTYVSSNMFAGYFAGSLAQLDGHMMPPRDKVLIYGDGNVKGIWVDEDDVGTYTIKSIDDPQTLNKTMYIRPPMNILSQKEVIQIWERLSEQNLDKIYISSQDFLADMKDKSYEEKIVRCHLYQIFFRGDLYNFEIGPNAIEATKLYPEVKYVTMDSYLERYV

PhIGS1 = target: T3, PhIGS1 (Petunia hybrida, UniProt Q15GI3); conditions: cited from earlier work; for Vmax / kcat: PhIGS1
T3 sequence (Q15GI3 1-323): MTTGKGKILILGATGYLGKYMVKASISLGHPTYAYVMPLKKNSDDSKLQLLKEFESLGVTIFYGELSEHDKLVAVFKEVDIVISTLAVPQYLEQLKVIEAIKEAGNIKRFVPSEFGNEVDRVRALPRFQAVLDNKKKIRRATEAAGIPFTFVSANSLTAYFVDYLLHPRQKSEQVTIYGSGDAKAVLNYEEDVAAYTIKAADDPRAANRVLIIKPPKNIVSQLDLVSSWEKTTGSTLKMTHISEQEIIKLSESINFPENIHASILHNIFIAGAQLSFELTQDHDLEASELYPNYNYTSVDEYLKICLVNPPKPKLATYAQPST

[3] = tested on: basil CS/ES and petunia IES; conditions: range over basil CS/ES and petunia IES, cited from earlier work
ObEGS1 = target: T4, ObEGS1 (Ocimum basilicum, UniProt Q15GI4); conditions: cited from earlier work; for Vmax / kcat: ObEGS1
T4 sequence (Q15GI4 1-314): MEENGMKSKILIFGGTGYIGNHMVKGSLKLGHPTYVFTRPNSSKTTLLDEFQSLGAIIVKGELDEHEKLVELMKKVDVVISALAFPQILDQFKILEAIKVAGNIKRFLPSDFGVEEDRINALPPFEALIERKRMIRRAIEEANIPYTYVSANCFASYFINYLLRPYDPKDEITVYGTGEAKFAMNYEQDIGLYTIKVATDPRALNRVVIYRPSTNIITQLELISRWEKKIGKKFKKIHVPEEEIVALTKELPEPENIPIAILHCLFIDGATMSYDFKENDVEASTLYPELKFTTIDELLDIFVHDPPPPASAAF

[4] = substrate: COc1cc(/C=C/COC(C)=O)ccc1O; test: LtPLRh1 (LtCES1) chavicol/eugenol synthase assays, kinetic parameters for monolignol ester substrates; type: biochemical, Larrea tridentata; conditions: other: Table 1, Bis-Tris propane pH 7.55, 30° C., 1.0 mM NADPH, apparent values
Procedure: as §1

[5] = substrate: O=C(/C=C/c1ccc(O)cc1)OC/C=C/c1ccc(O)cc1; test: as above; type: biochemical, Larrea tridentata; conditions: other: Table 1, Bis-Tris propane pH 7.55, 30° C., 1.0 mM NADPH, apparent values
Procedure: as §1

[6] = substrate: CC(=O)OC/C=C/c1ccc(O)cc1; test: as above; type: biochemical, Larrea tridentata; conditions: other: Table 1, Bis-Tris propane pH 7.55, 30° C., 1.0 mM NADPH, apparent values
Procedure: as §1

[7] = Characterisation of recombinant LtPLRh1: pH optimum and efficiency versus homologues; type: biochemical, Larrea tridentata; conditions: from previously reported kinetic parameters (26)
Procedure: Enzymatic assays. All assays were performed at 30° C. in 250 μl of the corresponding buffered solutions (at 100 mM buffer concentration) containing 0.5 μg LtPL LtPLRh1 (LtCES1) Rh1 and 1.0 mM NADPH, and were terminated by addition of 25 μl glacial acetic acid and freezing. Chavicol/eugenol synthase activity assays were individually performed in Bis-Tris propane buffer (pH 7.55) containing 0.4 mM p-coumaryl coumarate (50), p-coumaryl acetate (48) or coniferyl acetate (49). Assays were carried out for 1 to 120 min; controls included both boiled enzyme extracts and omission of substrates.
Kinetic parameters (Km and Vmax): Three sets of triplicate assays were carried out for 5 min in Bis-Tris propane buffer at pH 7.55, and contained different concentrations of p-coumaryl acetate (48), p-coumaryl coumarate (50) or coniferyl acetate (49) (3.2 μM-1 mM).

For O=C(/C=C/c1ccc(O)cc1)OC/C=C/c1ccc(O)cc1 [p-coumaryl coumarate (50), p-coumaryl coumarate], the Km values (LtPLRh1 (LtCES1) [1]) was “a few hundred”, the Vmax values (LtPLRh1 (LtCES1) [1]) was “a few hundred” and the Vmax (LtPLRh1 (LtCES1) [1]) was 75 pkat/μg. For the same molecule, the kcat (LtPLRh1 (LtCES1) [1]) was 2.55 s⁻¹.

In the case of pinoresinol [pinoresinol (54)], the “activity of LtPLRh1 towards the compound as substrate” value (“activity … as substrate” below) (LtPLRh1 (LtCES1) [2]) is given as “at best marginal activity” and the “PLR-catalyzed reduction (serves as substrate)” value (shortened to “PLR-catalyzed reduction”) (PLR_Tp1) is given as “uses several p-hydroxylated phenylpropanoid substrates”.

In the case of COc1cc([C@H]2O[C@@H](c3ccc(O)c(OC)c3)[C@H](C)[C@@H]2C)ccc1O [nectandrin B (72), nectandrin B], the “activity … as substrate” value (LtPLRh1 (LtCES1) [2]) is reported as “at best marginal activity; also recorded: do not serve as substrates”.

In the case of O=c1c(-c2ccc(O)cc2)coc2cc(O)cc(O)c12 [genistein (73), genistein], the “activity … as substrate” value (LtPLRh1 (LtCES1) [2]) is reported as “at best marginal activity; also recorded: do not serve as substrates”.

For C/C=C/c1cc(OC)c2c(c1)[C@H](C)[C@@H](c1ccc(O)c(OC)c1)O2 [licarin A (64), licarin A], the “activity … as substrate” value (LtPLRh1 (LtCES1) [2]) was “at best marginal activity”.

For COc1cc(C2Oc3c(OC)cc(/C=C/CO)cc3C2CO)ccc1O (centres unmarked) [dehydrodiconiferyl alcohol (56), dehydrodiconiferyl alcohol], the “activity … as substrate” value (LtPLRh1 (LtCES1) [2]) was “at best marginal activity”.

In the case of COc1cc([C@H]2OC[C@@H]3C(c4cc(OC)c(O)c(OC)c4)OC[C@H]23)ccc1O (some centres unmarked) [medioresinol (69), medioresinol], the “PLR-catalyzed reduction” value (PLR_Tp1) is listed as “uses several p-hydroxylated phenylpropanoid substrates” and the “PLR-catalyzed reduction” value (PLR_Tp1; listed as Medioresinol (69)) is listed as “additional PLR substrates”.

In the case of COc1ccc(-c2coc3cc(O)cc(O)c3c2=O)cc1 [biochanin A (74), biochanin A], the “activity … as substrate” value (LtPLRh1 (LtCES1) [2]) is reported as “at best marginal activity; also recorded: do not serve as substrates”.

For COc1cc(/C=C/COC(C)=O)ccc1O [coniferyl acetate (49), coniferyl acetate], the Km (PhIGS1; Table 1, PhIGS1, Koeduka et al. 2006) is listed as 1600 µM, the Vmax (PhIGS1; Table 1) is listed as 7 pkat μg^−1 prot and the kcat (PhIGS1; Table 1) is listed as 0.3 s⁻¹. The Km (PhIGS1; Table 2, PhIGS1, as reported in (26)) was 1600 µM, the Vmax (PhIGS1; Table 2) was 7 pkat/μg and the kcat (PhIGS1; Table 2) was 0.3 s⁻¹. For the same molecule, the Vmax [3] was 7-20 pkat μg^−1 protein, the Km ([3]; read-out: substrate affinities (Km)) was 1600 to 5100 µM and the “efficiency of reduction by LtPLRh1 relative to reported homologues in basil and petunia” value (LtPLRh1 (LtCES1) [1]) was greater than 100 fold. For the same molecule, the Km values (LtPLRh1 (LtCES1) [1]) was “a few hundred”, the Vmax values (LtPLRh1 (LtCES1) [1]) was “a few hundred” and the Vmax (LtPLRh1 (LtCES1) [1]) was 190 pkat/μg. For the same molecule, the kcat (LtPLRh1 (LtCES1) [1]) was 6.46 s⁻¹, the Km (ObEGS1; Table 1, ObEGS1, Koeduka et al. 2006) was 5100 µM and the Vmax (ObEGS1; Table 1) was 20 pkat μg^−1 prot. The kcat (ObEGS1; Table 1) was 0.7 s⁻¹, the Km (ObEGS1; Table 2, ObEGS1, as reported in (26)) was 5100 µM and the Vmax (ObEGS1; Table 2) was 20 pkat/μg. The kcat (ObEGS1; Table 2) was 0.7 s⁻¹.

For c1cc2c(cc1[C@H]1OC[C@H]3[C@@H]1CO[C@@H]3c1ccc3c(c1)OCO3)OCO2 [sesamin (71), sesamin], the “PLR-catalyzed reduction” value (PLR_Tp1) is given as “fails to reduce; also recorded: does not undergo PLR-catalyzed reduction”.

With C[C@@H]1[C@H](C)[C@@H](c2ccc(O)cc2)O[C@@H]1c1ccc(O)cc1 [larreatricin (62), larreatricin] the “activity … as substrate” value (LtPLRh1 (LtCES1) [2]) was “at best marginal activity”.

For COc1cc([C@H]2OC[C@H]3[C@@H]2CO[C@@H]3c2cc(OC)c(O)c(OC)c2)cc(OC)c1O [syringaresinol (70), syringaresinol], the “PLR-catalyzed reduction” value (PLR_Tp1) is listed as “uses several p-hydroxylated phenylpropanoid substrates; also recorded: additional PLR substrates”.

With CC(=O)OC/C=C/c1ccc(O)cc1 [p-coumaryl acetate (48), p-coumaryl acetate] the Km values (LtPLRh1 (LtCES1) [1]) was “a few hundred”, the Vmax values (LtPLRh1 (LtCES1) [1]) was “a few hundred” and the Vmax (LtPLRh1 (LtCES1) [1]) was 200 pkat/μg. It also gave a kcat (LtPLRh1 (LtCES1) [1]) of 6.80 s⁻¹.

B1: LtPLRh1 (LtCES1) (Larrea tridentata) (protein)
chain: MAQKSKILIIGGTGYIGKFVVEASAKAGRPTFALVRESTVSDPVKGKLIANFKNLGVNILHGDLNDHESLVKAIKKVDVVISTVGNFQIADQVKIIAAIKAAGNVKRFFPSEFGNDVDRTHAVEPAKSTFEMKAQLRRTIEAEGIPYTYVSSNFFAGYFLPVLGQVGVTAPPRDKVTILGDGNQKAVFNKEDDIGTYTIRAADDPRTLNKILYIRPPRNTYSMNELVALWEKKIGKTLEKTYVPEEQLLKNIQEAEIPWNVVLAINHSVFVKGDHTNFAIKPSFGVEASELYPDVKYTTVEEYLSQFV
In the case of B1, the Km [4] is reported as 290 µM, the Vmax [4] is reported as 11.4 µmol/min/mg and the kcat [4] is reported as 6.46 s⁻¹. The kcat/Km [4] was 22000 M⁻¹ s⁻¹, the Km [5] was 210 µM and the Vmax [5] was 4.5 µmol/min/mg. For the same molecule, the kcat [5] was 2.55 s⁻¹, the kcat/Km [5] was 12000 M⁻¹ s⁻¹ and the Km [6] was 350 µM. For the same molecule, the Vmax [6] was 12 µmol/min/mg, the kcat [6] was 6.8 s⁻¹ and the kcat/Km [6] was 19500 M⁻¹ s⁻¹.

B2: LtPLRh1: pinoresinol-lariciresinol reductase homologue from Larrea tridentata, chavicol/eugenol synthase, SEQ ID NO:2, recombinant 34 kDa (protein)
chain: MAQKSKILIIGGTGYIGKFVVEASAKAGRPTFALVRESTVSDPVKGKLIANFKNLGVNILHGDLNDHESLVKAIKKVDVVISTVGNFQIADQVKIIAAIKAAGNVKRFFPSEFGNDVDRTHAVEPAKSTFEMKAQLRRTIEAEGIPYTYVSSNFFAGYFLPVLGQVGVTAPPRDKVTILGDGNQKAVFNKEDDIGTYTIRAADDPRTLNKILYIRPPRNTYSMNELVALWEKKIGKTLEKTYVPEEQLLKNIQEAEIPWNVVLAINHSVFVKGDHTNFAIKPSFGVEASELYPDVKYTTVEEYLSQFV
modifications: Larrea tridentate
In the case of B2, the “efficiency/activity relative to the enzymes reported in basil and petunia” value [7] is reported as greater than 100 fold and the “efficiency/activity relative to the enzymes reported in basil and petunia” value ([7]; listed as LtPLRh1 (LtCES1)) is reported as “over 100 fold”.
